≈ marks a conversion by molar mass, not a printed value.
Experiments:
[1] = Phosphate-buffered saline (PBS) solubility of compounds; format: physicochemical; details: aqueous buffer, thermodynamic from solid, PBS pH 7.5, 0.5 mg/mL, vortexed 90 min, filtered, LC-MS/MS, read-out: Solubility Range
Experimental: PBS solutions (pH 7.5) were prepared according to the following compositions and stored at 4° C. Test compounds were dissolved in PBS (pH 7.5) at 0.5 mg/mL and vortexed for 90 min. The PBS solution was sequentially filtered through a 0.45, 1.2, […] syringe filter. Concentration of test compounds were determined using LC-MS/MS with appropriate dilution of the samples.

human wild type-CFTR = human wild type-CFTR (Homo sapiens, UniProt P13569); test: Cell-based YFP assay; set-up: expressed in transfected cells; host or cells: CHO-K1 (Chinese hamster ovary); details: CHO-K1 cells expressing human wild type-CFTR and YFP-H148Q/I152L; forskolin 20 μM = 100% activity; read-out: Cell-based YFP Assay (EC50) Concentration Range
Chain of human wild type-CFTR (P13569 whole entry): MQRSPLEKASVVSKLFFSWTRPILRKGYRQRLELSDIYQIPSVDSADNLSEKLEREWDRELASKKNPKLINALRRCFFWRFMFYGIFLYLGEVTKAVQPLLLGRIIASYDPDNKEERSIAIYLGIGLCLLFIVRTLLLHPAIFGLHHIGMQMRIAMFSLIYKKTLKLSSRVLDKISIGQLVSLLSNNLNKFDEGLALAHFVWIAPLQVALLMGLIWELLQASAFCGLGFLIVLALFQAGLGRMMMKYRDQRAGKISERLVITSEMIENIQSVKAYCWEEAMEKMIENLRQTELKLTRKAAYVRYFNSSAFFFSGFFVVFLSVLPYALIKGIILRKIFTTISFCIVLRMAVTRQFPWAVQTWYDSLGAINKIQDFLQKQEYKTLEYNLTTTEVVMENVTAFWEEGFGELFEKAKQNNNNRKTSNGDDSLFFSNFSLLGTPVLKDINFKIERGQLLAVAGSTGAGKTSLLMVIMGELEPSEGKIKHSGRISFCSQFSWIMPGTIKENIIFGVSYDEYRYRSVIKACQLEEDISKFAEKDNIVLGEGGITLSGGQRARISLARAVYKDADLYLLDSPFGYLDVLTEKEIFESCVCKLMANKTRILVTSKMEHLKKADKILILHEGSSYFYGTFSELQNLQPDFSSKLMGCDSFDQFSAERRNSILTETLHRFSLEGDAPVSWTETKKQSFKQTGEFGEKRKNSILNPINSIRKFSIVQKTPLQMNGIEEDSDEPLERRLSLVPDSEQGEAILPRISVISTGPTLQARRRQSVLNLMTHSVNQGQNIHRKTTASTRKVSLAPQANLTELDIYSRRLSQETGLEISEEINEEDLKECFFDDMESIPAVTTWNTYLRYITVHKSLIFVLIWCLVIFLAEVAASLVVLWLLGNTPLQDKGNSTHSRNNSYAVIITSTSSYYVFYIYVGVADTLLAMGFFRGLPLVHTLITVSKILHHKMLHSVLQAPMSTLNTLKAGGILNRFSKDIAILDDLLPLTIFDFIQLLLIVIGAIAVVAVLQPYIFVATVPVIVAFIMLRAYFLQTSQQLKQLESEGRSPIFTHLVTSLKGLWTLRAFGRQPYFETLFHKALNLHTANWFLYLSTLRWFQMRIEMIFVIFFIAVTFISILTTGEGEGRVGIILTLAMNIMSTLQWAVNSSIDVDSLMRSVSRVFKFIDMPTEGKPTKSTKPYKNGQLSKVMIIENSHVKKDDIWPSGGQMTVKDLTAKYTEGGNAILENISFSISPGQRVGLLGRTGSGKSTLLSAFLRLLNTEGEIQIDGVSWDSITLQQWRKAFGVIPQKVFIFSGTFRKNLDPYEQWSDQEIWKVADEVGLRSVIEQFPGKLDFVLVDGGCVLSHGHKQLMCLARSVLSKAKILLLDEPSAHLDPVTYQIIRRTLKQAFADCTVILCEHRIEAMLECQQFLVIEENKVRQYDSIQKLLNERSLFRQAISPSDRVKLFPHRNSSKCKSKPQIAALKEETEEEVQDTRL
In short: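 CHO-K1 cells co-expressing human wild-type CFTR and YFP-H148Q/I152L halide sensor, grown 48 h at 37 °C, then in PBS. YFP quenching by I⁻ influx read at 37 °C after adding 140 mM I⁻ solution, sampled every 0.4 s for 14 s. Triplicates averaged; EC50 fitted.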

SMILES | solubility at 90 min [1] | EC50 (human wild type-CFTR)
COc1ccc(-c2ccnc3cc(C(=O)Nc4ccc(C(=O)OCCN5CCOCC5)cc4)nn23)cc1OC [Compound 164, 2-morpholinoethyl 4-(7-(3,4-dimethoxyphenyl)pyrazolo [1,5-a]pyrimidine-2-carboxamido)benzoate] | < 0.1 µg/mL | < 200 nM
COc1ccc(-c2ccnc3cc(C(=O)Nc4ccc(NC(=O)[C@H](C)NC(=O)OC(C)(C)C)cc4)nn23)cc1OC [Compound 281] | < 0.1 µg/mL | < 200 nM
COc1ccc(-c2ccnc3cc(C(=O)Nc4ccc(C(=O)NCCN5CCOCC5)cc4)nn23)cc1OC [Compound 139, 7-(3,4-dimethoxyphenyl)-N-(4-((2-morpholinoethyl)carbamoyl)phenyl)pyrazolo[1,5-a]pyrimidine-2-carboxamide] | < 0.1 µg/mL | < 200 nM
COc1ccc(-c2ccnc3cc(C(=O)Nc4ccc(C(=O)N5CCN(C)CC5)c(Cl)c4)nn23)cc1OC [Compound 161, N-(3-chloro-4-(4-methylpiperazine-1-carbonyl)phenyl)-7-(3,4-dimethoxyphenyl)pyrazolo [1,5-a]pyrimidine-2-carboxamide] | 0.1 to 10 µg/mL (≈ 0.187 to 18.7 µM) | 200 to 2000 nM
COc1ccc(-c2ccnc3cc(C(=O)N[C@H]4CC[C@@H](C(=O)OC)CC4)nn23)cc1OC [Compound 9, methyl (1S,4S)-4-(7-(3,4-dimethoxyphenyl)pyrazolo [1,5-a]pyrimidine-2-carboxamido)cyclohexane-1-carboxylate] | 0.1 to 10 µg/mL (≈ 0.228 to 22.8 µM) | 
COc1ccc(-c2ccnc3cc(C(=O)NC4CCN(C(=O)OC(C)(C)C)CC4)nn23)cc1OC [Compound 63, tert-butyl 4-(7-(3,4-dimethoxyphenyl)pyrazolo[1,5-a]pyrimidine-2-carboxamido)piperidine-1-carboxylate] | 0.1 to 10 µg/mL (≈ 0.208 to 20.8 µM) | 200 to 2000 nM
COc1ccc(-c2ccnc3cc(C(=O)N[C@H]4CC[C@@H](C(=O)O)CC4)nn23)cc1OC [Compound 19, (1S,4S)-4-(7-(3,4-dimethoxyphenyl)pyrazolo [1,5-a]pyrimidine-2-carboxamido)cyclohexane-1-carboxylic acid] | > 10 µg/mL | 
COc1ccc(-c2ccnc3cc(C(=O)Nc4ccc(NC(=O)[C@@H](NC(=O)OC(C)(C)C)C(C)C)cc4)nn23)cc1OC [Compound 282, tert-butyl (S)-(1-((4-(7-(3,4-dimethoxyphenyl)pyrazolo [1,5-a]pyrimidine-2-carboxamido)phenyl)amino)-3-methyl-1-oxobutan-2-yl)carbamate] | < 0.1 µg/mL | < 200 nM
COc1ccc(-c2ccnc3cc(C(=O)Nc4cccc(C(=O)O)c4)nn23)cc1OC [Compound 16, 3-(7-(3,4-dimethoxyphenyl)pyrazolo[1,5-a]pyrimidine-2-carboxamido)benzoic acid] | > 10 µg/mL | ≥ 2000 nM
COc1ccc(-c2ccnc3cc(C(=O)N4CCC(NC(=O)OC(C)(C)C)CC4)nn23)cc1OC [Compound 100, tert-butyl (1-(7-(3,4-dimethoxyphenyl)pyrazolo[1,5-a]pyrimidine-2-carbonyl)piperidin-4-yl)carbamate] | 0.1 to 10 µg/mL (≈ 0.208 to 20.8 µM) | 
COC(=O)c1ccc(NC(=O)c2cc3nccc(-c4ccc(OC)c(Cl)c4)n3n2)cc1 [Compound 39, methyl 4-(7-(3-chloro-4-methoxyphenyl)pyrazolo [1,5-a]pyrimidine-2-carboxamido)benzoate] | < 0.1 µg/mL | 200 to 2000 nM
COc1ccc(-c2ccnc3cc(C(=O)Nc4ccc(C(=O)N5CCOCC5)cc4F)nn23)cc1OC [Compound 157, 7-(3,4-dimethoxyphenyl)-N-(2-fluoro-4-(morpholine-4-carbonyl)phenyl)pyrazolo[1,5-a]pyrimidine-2-carboxamide] | < 0.1 µg/mL | < 200 nM
COc1ccc(-c2ccnc3cc(C(=O)Nc4ccc(N5CCN(C)CC5)cn4)nn23)cc1OC [Compound 204, 7-(3,4-dimethoxyphenyl)-N-(5-(4-methylpiperazin-1-yl)pyridin-2-yl)pyrazolo[1,5-a]pyrimidine-2-carboxamide] | < 0.1 µg/mL | < 200 nM
COc1ccc(-c2ccnc3cc(C(=O)N[C@H]4CC[C@H](C(=O)O)CC4)nn23)cc1OC [Compound 21, (1R,4R)-4-(7-(3,4-dimethoxyphenyl)pyrazolo [1,5-a]pyrimidine-2-carboxamido)cyclohexane-1-carboxylic acid] | > 10 µg/mL | 
COc1ccc(-c2ccnc3cc(C(=O)Nc4ccc(C(=O)N[C@@H](CC(C)C)C(=O)O)cc4)nn23)cc1OC [Compound 85, (4-(7-(3,4-dimethoxyphenyl)pyrazolo[1,5-a]pyrimidine-2-carboxamido)benzoyl)-L-leucine] | > 10 µg/mL | 200 to 2000 nM
COc1ccc(-c2ccnc3cc(C(=O)Nc4ccc(C(=O)N5CC6(CN(C)C6)C5)cc4)nn23)cc1OC [Compound 166, 7-(3,4-dimethoxyphenyl)-N-(4-(6-methyl-2,6-diazaspiro[3.3]heptane-2-carbonyl)phenyl)pyrazolo [1,5-a]pyrimidine-2-carboxamide] | < 0.1 µg/mL | 200 to 2000 nM
COC(=O)[C@@H](NC(=O)c1ccc(NC(=O)c2cc3nccc(-c4ccc(OC)c(OC)c4)n3n2)cc1)C(C)C [Compound 58, methyl (4-(7-(3,4-dimethoxyphenyl)pyrazolo [1,5-a]pyrimidine-2-carboxamido)benzoyl)-L-valinate] | < 0.1 µg/mL | < 200 nM
COc1ccc(-c2ccnc3cc(C(=O)Nc4ccc(C(=O)N5CCOCC5)c(O)c4)nn23)cc1OC [Compound 169, 7-(3,4-dimethoxyphenyl)-N-(3-hydroxy-4-(morpholine-4-carbonyl)phenyl)pyrazolo[1,5-a]pyrimidine-2-carboxamide] | < 0.1 µg/mL | < 200 nM
COC(=O)C1CN(C(=O)c2ccc(NC(=O)c3cc4nccc(-c5ccc(OC)c(OC)c5)n4n3)cc2)C1 [Compound 65, methyl 1-(4-(7-(3,4-dimethoxyphenyl)pyrazolo[1,5-a]pyrimidine-2-carboxamido)benzoyl) azetidine-3-carboxylate] | < 0.1 µg/mL | < 200 nM
COc1ccc(-c2ccnc3cc(C(=O)N[C@H]4CC[C@H](C(=O)N5CCOCC5)CC4)nn23)cc1OC [Compound 75, 7-(3,4-dimethoxyphenyl)-N-((1R,4R)-4-(morpholine-4-carbonyl)cyclohexyl) pyrazolo[1,5-a]pyrimidine-2-carboxamide] | > 10 µg/mL | ≥ 2000 nM
COc1ccc(-c2ccnc3cc(C(=O)Nc4ccc(C(=O)OCCCN5CCN(C)CC5)cc4)nn23)cc1OC [Compound 165, 3-(4-methylpiperazin-1-yl)propyl 4-(7-(3,4-dimethoxyphenyl)pyrazolo[1,5-a]pyrimidine-2-carboxamido)benzoate] | < 0.1 µg/mL | 200 to 2000 nM
COc1ccc(-c2ccnc3cc(C(=O)N[C@H]4CC[C@@H](C(=O)N5CCN(C(=O)OC(C)(C)C)CC5)CC4)nn23)cc1OC [Compound 73, tert-butyl 4-((1S,4S)-4-(7-(3,4-dimethoxyphenyl)pyrazolo [1,5-a]pyrimidine-2-carboxamido)cyclohexane-1-carbonyl)piperazine-1-carboxylate] | 0.1 to 10 µg/mL (≈ 0.169 to 16.9 µM) | 200 to 2000 nM
COc1ccc(-c2ccnc3cc(C(=O)Nc4cccc(C(=O)N5CCOCC5)c4)nn23)cc1OC [Compound 55, 7-(3,4-dimethoxyphenyl)-N-(3-(morpholine-4-carbonyl)phenyl)pyrazolo [1,5-a]pyrimidine-2-carboxamide] | < 0.1 µg/mL | < 200 nM
COC(=O)c1cccc(NC(=O)c2cc3nccc(-c4ccc(OC)c(OC)c4)n3n2)c1 [Compound 8, methyl 3-(7-(3,4-dimethoxyphenyl)pyrazolo [1,5-a]pyrimidine-2-carboxamido)benzoate] | < 0.1 µg/mL | 
COc1ccc(-c2ccnc3cc(C(=O)N[C@H]4CC[C@@H](C(=O)N5CCN(C)CC5)CC4)nn23)cc1OC [Compound 240, 7-(3,4-dimethoxyphenyl)-N-((1S,4S)-4-(4-methylpiperazine-1-carbonyl)cyclohexyl) pyrazolo[1,5-a]pyrimidine-2-carboxamide] |  | ≥ 2000 nM
COc1ccc(-c2ccnc3cc(C(=O)N4CCN(C(=O)COC(C)=O)CC4)nn23)cc1OC [Compound 83, 2-(4-(7-(3,4-dimethoxyphenyl)pyrazolo[1,5-a]pyrimidine-2-carbonyl)piperazin-1-yl)-2-oxoethyl acetate] |  | ≥ 2000 nM
COc1ccc(-c2ccnc3cc(C(=O)N4CCN(C(=O)c5cc(F)ccc5F)[C@@H](C)C4)nn23)cc1OC [Compound 356] |  | < 200 nM
COc1ccc(-c2ccnc3cc(C(=O)Nc4ccc(C(=O)N[C@@H](C)C(=O)O)cc4)nn23)cc1OC [Compound 44, (4-(7-(3,4-dimethoxyphenyl)pyrazolo[1,5-a]pyrimidine-2-carboxamido)benzoyl)-L-alanine] |  | 200 to 2000 nM
COc1ccc(-c2ccnc3cc(C(=O)N4CCN(C(=O)c5ccccc5OC)[C@@H](C)C4)nn23)cc1OC [Compound 317, (S)-(7-(3,4-dimethoxyphenyl)pyrazolo[1,5-a]pyrimidin-2-yl)(4-(2-methoxybenzoyl)-3-methylpiperazin-1-yl) methanone] |  | 200 to 2000 nM

From patent US20240199623A1 (ILDONG PHARMACEUTICAL CO., LTD., priority 2020, published 2024)
